# In patent publication US12649732B2, “Polymorphs of (R)-N-(5-(5-isopropyl-1,2,4-oxadiazol-3-yl)-2,3-dihydro-1H-inden-1-yl)-2-methyl-2H-tetrazole-5-carboxamide” (Cytokinetics, Inc., priority 2019, dated 2026):
# Assays:
# Format in all cases: physicochemical
# [1] = Competitive slurry experiments between Form I and Form II
# Protocol: Competitive slurry experiments between Form I and Form II in different solvents were conducted. Form I was suspended in the selected solvents at both 50° C. and 5° C. and stirred for a minimum of 1 hour before filtration to create a saturated solution. Form I (ca. 10 mg) and Form II (ca. 10 mg) were combined in a HPLC vial. Each sample was treated with 0.5 ml of the selected saturated solution. The samples were stirred at the selected temperature for 6 days. Solids obtained were filtered and dried under suction for a few minutes prior to characterization. Samples were slightly wet during XRPD analysis.
# [2] = Dynamic Vapor Sorption (DVS); conditions: 0-90% RH range, 25° C.
# Protocol: DVS data were obtained using a SMS DVS Intrinsic moisture sorption analyzer, controlled by DVS Intrinsic Control software. The sample temperature was maintained at 25° C. by the instrument controls. The humidity was controlled by mixing streams of dry and wet nitrogen, with a total flow rate of 200 ml/min. The relative humidity was measured by a calibrated Rotronic probe (dynamic range of 1.0-100% RH), located near the sample. The weight change, (mass relaxation) of the sample as a function of % RH was constantly monitored by a microbalance (accuracy ±0.005 mg).
# Typically, 5-30 mg of sample was placed in a tared mesh stainless steel basket under ambient conditions. The sample was loaded and unloaded at 40% RH and 25° C. (typical room conditions). A moisture sorption isotherm was performed as outlined below (2 scans per complete cycle). The standard isotherm was performed at 25° C. at 10% RH intervals over a 0-90% RH range. Typically, a double cycle (4 scans) was carried out. Data analysis was carried out within Microsoft Excel using the DVS Analysis Suite.
# [3] = Stability study: XRPD after storage for 7 days
# Protocol: Polymorphic Form I of (R)—N-(5-(5-isopropyl-1,2,4-oxadiazol-3-yl)-2,3-dihydro-1H-inden-1-yl)-2-methyl-2H-tetrazole-5-carboxamide was analyzed by XRPD, DSC, TGA, and DVS. […] As shown in the TGA graph, no weight loss prior to degradation, which starts at about 230° C., was observed. […] Chemical stability study of Form I was also performed. XRPD patterns were measured after storage of samples of Form I for 7 days at 40° C./75% RH and 25° C./97% RH.
# Polymorphic Form I of (R)—N-(5-(5-isopropyl-1,2,4-oxadiazol-3-yl)-2,3-dihydro-1H-inden-1-yl)-2-methyl-2H-tetrazole-5-carboxamide (500 mg) was suspended in n-propyl acetate (50 vol) and stirred at 50° C. After 10 minutes, a clear solution was obtained. The solvent was removed under reduced pressure (100 ml round-bottom flask). The solid obtained was analyzed by XRPD and determined as a mixture of Form I and Form II. The solid was suspended in n-propyl acetate (40 vol) and stirred at 50° C. After 10 minutes, a clear solution was obtained. The solvent was removed under reduced pressure in a larger flask (250 ml round-bottom flask). The resulting solid was analyzed by XRPD, DSC, TGA, and GVS and determined as Form II. […] As shown in the DSC graph (sample heated at 10° C./min), an endotherm onset at about 133° C., an exotherm onset at about 135° C., and an endotherm onset at about 152° C. were observed. As shown in the TGA graph, a weight loss of about 1.1% between about 83° C. and about 160° C. prior to degradation was observed. […] Chemical stability study of Form II was also performed. XRPD patterns were measured after storage of samples of Form II for 7 days at 40° C./75% RH and 25° C./97% RH.
# [4] = Polymorph screening (isothermal maturation, liquid assisted grinding, temperature cycling maturation)
# Protocol: Polymorphic Form I of (R)—N-(5-(5-isopropyl-1,2,4-oxadiazol-3-yl)-2,3-dihydro-1H-inden-1-yl)-2-methyl-2H-tetrazole-5-carboxamide (ca. 2 g) was suspended in MeCN:H2O (90 vol) and stirred at 50° C. for 40 minutes. The clear solution was filtered and flash frozen in a dry ice/acetone bath and placed for lyophilisation. The solid isolated was analyzed by XRPD and determined to be poorly crystalline Form I.
# Poorly crystalline Form I (ca. 15 mg) was dispensed into HPLC vials. Solvent was added (10 vol) and the samples were shaken/stirred at 50° C. After 6 days, suspensions were filtered through a Millipore filter plate and dried under suction for 30 minutes prior to XPRD analysis.
# Polymorphic Form I of (R)—N-(5-(5-isopropyl-1,2,4-oxadiazol-3-yl)-2,3-dihydro-1H-inden-1-yl)-2-methyl-2H-tetrazole-5-carboxamide was dispensed into HPLC vials and two stainless steel grinding balls (3 mm diameter) added. Solvent was added (10 μl) and the samples were subjected to grinding on a Fritsch planetary mill (500 rpm, 2 hour duration). Solids obtained post grinding were analyzed by XRPD. As shown below in Table 5, Form I was obtained from all of the experiments.
# Polymorphic Form I of (R)—N-(5-(5-isopropyl-1,2,4-oxadiazol-3-yl)-2,3-dihydro-1H-inden-1-yl)-2-methyl-2H-tetrazole-5-carboxamide (20 mg) was dispensed into HPLC vials. The selected solvent was added (5 vol) to each sample then placed for maturation (RT/50° C., cycled with 4 hours at each temperature). After 2 days, the samples were removed from the maturation chamber. Suspensions were filtered through a Millipore plate and dried under suction for 20 minutes prior to XRPD analysis. Solutions obtained were treated with increasing aliquots of anti-solvent until a suspension was obtained or maximum of 5 eq. had been added. Samples were shaken at 25° C. for 30 minutes. Suspensions obtained after shaking were filtered through a Millipore plate and dried under suction for 20 minutes prior to XRPD analysis. Solutions and samples containing a small amount of solid were shaken at 25° C. overnight with any solutions obtained allowed to evaporate at RT. […]
SMILES,"XRPD analysis (form after slurry) ([1]; Sample 01, MeCN, 5 °C, 6 days)","XRPD analysis (form after slurry) ([1]; Sample 02, n-propyl acetate, 5 °C, 6 days)","XRPD analysis (form after slurry) ([1]; Sample 03, MEK, 5 °C, 6 days)","XRPD analysis (form after slurry) ([1]; Sample 04, H2O:MeCN (25:75), 5 °C, 6 days)","XRPD analysis (form after slurry) ([1]; Sample 05, H2O:MeCN (75:25), 5 °C, 6 days)","XRPD analysis (form after slurry) ([1]; Sample 06, MeCN, 50 °C, 6 days)","XRPD analysis (form after slurry) ([1]; Sample 07, n-propyl acetate, 50 °C, 6 days)","XRPD analysis (form after slurry) ([1]; Sample 09*, H2O:MeCN (25:75), 50 °C, 6 days, also treated with neat solvent)","XRPD analysis (form after slurry) ([1]; Sample 10, H2O:MeCN (75:25), 50 °C, 6 days)","XRPD analysis (form after slurry) ([1]; Sample 11, MEK, 50 °C, 6 days (repeat of 08))","XRPD analysis (form after slurry) ([1]; Sample 12, H2O:MeCN (25:75), 50 °C, 6 days (repeat of 09))",moisture uptake as determined by DVS [2] [% w/w],changes in XRPD patterns after storage ([3]; 7 days at 25° C./97% RH),changes in XRPD patterns after storage ([3]; 7 days at 40° C./75% RH),"relative stability of form ([4]; isothermal maturation, 50° C., 6 days, various solvents)","relative stability of form ([4]; liquid assisted grinding, 500 rpm, 2 hour, various solvents)","relative stability of form ([4]; temperature cycling maturation RT/50° C., 2 days, and anti-solvent screen)"
"CC(C)c1nc(-c2ccc3c(c2)CC[C@H]3NC(=O)c2nnn(C)n2)no1 [Form I and Form II, (R)—N-(5-(5-isopropyl-1,2,4-oxadiazol-3-yl)-2,3-dihydro-1H-inden-1-yl)-2-methyl-2H-tetrazole-5-carboxamide]",Form 1,Form 1,Form 1,Form 1,Form 1,Form I,Form I,Form I,Form I,Form I,Form I,–,–,–,–,–,–
"CC(C)c1nc(-c2ccc3c(c2)CC[C@H]3NC(=O)c2nnn(C)n2)no1 [Form I, (R)—N-(5-(5-isopropyl-1,2,4-oxadiazol-3-yl)-2,3-dihydro-1H-inden-1-yl)-2-methyl-2H-tetrazole-5-carboxamide]",–,–,–,–,–,–,–,–,–,–,–,0.36,No significant changes,No significant changes,most stable form,most stable form,most stable form
"CC(C)c1nc(-c2ccc3c(c2)CC[C@H]3NC(=O)c2nnn(C)n2)no1 [Form II, (R)—N-(5-(5-isopropyl-1,2,4-oxadiazol-3-yl)-2,3-dihydro-1H-inden-1-yl)-2-methyl-2H-tetrazole-5-carboxamide]",–,–,–,–,–,–,–,–,–,–,–,0.24,No significant changes,No significant changes,–,–,–
